The record followed here is patent US11773087B2, “GLP-1R receptor agonist compound and use thereof” (SUZHOU VINCENTAGE PHARMA CO., LTD, priority 2020, dated 2023).

T1 sequence (P43220 24-463): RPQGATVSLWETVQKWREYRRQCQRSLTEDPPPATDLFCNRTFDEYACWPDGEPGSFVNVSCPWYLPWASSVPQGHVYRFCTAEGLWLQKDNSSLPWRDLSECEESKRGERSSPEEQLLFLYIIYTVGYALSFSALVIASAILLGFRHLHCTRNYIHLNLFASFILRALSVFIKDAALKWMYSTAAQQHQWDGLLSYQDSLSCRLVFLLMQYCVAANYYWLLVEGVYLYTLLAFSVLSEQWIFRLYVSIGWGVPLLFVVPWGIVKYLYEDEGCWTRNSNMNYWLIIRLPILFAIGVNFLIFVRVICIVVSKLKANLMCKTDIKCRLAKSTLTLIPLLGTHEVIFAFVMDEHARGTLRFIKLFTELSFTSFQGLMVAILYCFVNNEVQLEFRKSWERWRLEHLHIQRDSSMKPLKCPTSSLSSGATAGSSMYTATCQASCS

Test system in one data set: not listed separately
The experiment in a line: Pharmacokinetic evaluation in rats (gavage). In kind it is in vivo. To be noted: rat, 10 mg/kg single oral gavage, plasma. The procedure: Test Embodiment 2: Pharmacokinetic Evaluation in Rats
The drug concentrations in the plasma of rats were tested at different times after the administration of the compounds by gavage using rats as test animals. The pharmacokinetic behavior of the compounds of the present disclosure in rats was studied and their pharmacokinetic characteristics were evaluated. In each group of embodiments, 3 rats with similar body weight were selected and administered orally at a dose of 10 mg/kg for a single administration. Blood was collected from animals at 15 min, 30 min, 1 h, 2 h, 4 h, 6 h, 8 h, 12 h, 24 h time points after administration. The LC-MS/MS analysis method was used to detect the content of the compound in plasma, and the lower limit of quantification of the method was 20 ng/mL. Concentration data in plasma was counted using the metabolic kinetic data analysis software WinNonlin 7.0, and the pharmacokinetic parameters were calculated using the non-compartmental analysis (NCA), as shown in Table 2 below.
Drug configuration: A certain amount of drug was taken, added with 2% Klucel LF+0.1% Tween 80 aqueous solution to prepare a clear solution or a uniform suspension.
Administration: Rats were administered by gavage after overnight fasting at a dose of 10 mg/kg.
Operation: Rats were administered by gavage, and blood was collected from the tail vein before administration and 15 min, 30 min, 1 h, 2 h, 4 h, 6 h, 8 h, 12 h, 24 h after administration, placed in heparinized sample tubes, centrifuged at 4° C., 3500 rpm for 10 min to separate plasma, stored at −20° C., and fed 2 hours after administration.
Determination of the content of test compounds in rat plasma after drug administration by gavage: 50 μL of plasma samples were thawed at room temperature, added with 130 μL of internal standard working solution (1000 ng/mL, acetonitrile, tolbutamide), vortexed for about 1 min and then centrifuged for 10 min at 4° C. and 13000 rpm. 50 μL of supernatant was mixed with 100 μL of 50% acetonitrile in water, and then the sample was injected for LC/MS/MS analysis.
For orientation: AUC(0-inf) means total exposure, with the tail of the curve extrapolated. Higher therefore signals high exposure. In general, Cmax refers to the highest concentration seen after dosing. As a reminder, the Tmax is the time from dosing to the highest level. Usually half-life stands for the time needed for the level to fall by half in the phase considered. On to `O=C(O)c1ccc2nc(CN3CCC(c4cccc(OCc5ccc(Cl)cc5F)n4)CC3)n(C[C@@H]3CCO3)c2c1` [Ref-01, reference compound], for which the AUC(0-inf) is 351 ng·h/mL, the Cmax was 105 ng/mL, the Tmax turned out to be 0.33 h and the half-life was 3.2 h.

For the molecule `O=C(O)c1ccc2nc(CN3CCC(c4cccnc4OCc4ccc(Cl)cc4F)CC3)n(C[C@@H]3CCO3)c2c1` [Ref-02, reference compound], the AUC(0-inf) was found to be 229 ng·h/mL, the Cmax was determined as 171 ng/mL, the Tmax came out at 0.25 h and the half-life is 5.52 h.

Turning to `Cc1ccc(COc2ccccc2C2CCN(Cc3nc4ccc(C(=O)O)cc4n3C[C@@H]3CCO3)CC2)c(F)c1` [Compound 12], the AUC(0-inf) was found to be 1320 ng·h/mL, the Cmax came out at 1020 ng/mL, the Tmax is 0.25 h and the half-life is 2.68 h.

`O=C(O)c1ccc2nc(CN3CCC(c4cccc(F)c4OCc4ccc(Cl)cc4F)CC3)n(C[C@@H]3CCO3)c2c1` [Compound 4]: the AUC(0-inf) stood at 417 ng·h/mL, the peak level (Cmax) was 90 ng/mL, the time of peak concentration (Tmax) was 0.83 h and the half-life was 2.11 h.

Another data set addresses T1, human GLP-1R receptor (Homo sapiens, UniProt P43220).
T1 construct: expressed in transfected cells; host or cells: 'GLP-1R cells' (frozen vial)
The experiment in a line: GLP-1R cAMP assay (HTRF, HEK293 cells expressing GLP-1R). In kind it is cell-based. To be noted: agonistic activity, GLP-1R HEK293 cells. The procedure:
Test Embodiment 1: Activity Test of GLP-1R cAMP Assay
This experiment aims to verify the agonistic activity of the compound of the present disclosure on human GLP-1R receptor.
Compounds were diluted 4-fold starting at 100 μM from DMSO using Bravo for a total of 10 points.
The reference compound polypeptide GLP-1 (7-37) was diluted 4-fold starting from 500 nM in DMSO using Bravo for a total of 10 points.
b) Preparation of Cell Suspension: • 1) 1 vial of GLP-1R cells was quickly thawed in a 37° C. water bath. • 2) The suspension of the cells was transferred to 10 mL of HBSS in a 15 mL conical tube. • 3) The cells were centrifuged at 1000 rpm for 5 min at room temperature to precipitate the cells. • 4) The supernatant was gently aspirated, and being careful not to aspirate the cells. • 5) The cells were relaxed by flicking the precipitation, and then the cell precipitation was re-suspended in 10 mL of HBSS. A sterile pipette was used to move fluid up and down to remove clumps. • 6) The concentration of cells was counted and the cell viability on Vi-cell was determined. • 7) GLP-1R cells were re-suspended in the test buffer at a concentration of 2.0×E5/mL cells. • 8) 10 μL of GLP-1R cell was transferred to OptiPlate-384 well plate.
c) Transfer of Compound: • 1) 100 nL of compound was transferred to OptiPlate-384 plate using Echo Transfer. • 2) The plate was rotated at 1000 rpm for 5 seconds.
d) HTRF cAMP Analysis of Agonists: • 1) The plate was incubated at room temperature for 30 minutes before adding detection reagents. • 2) An electric multi-channel pipette was used to add 10 μL of detection reagents respectively. • 3) The 384 well plate was covered with TopSeal-A membrane and incubated for 60 min at room temperature.
TopSeal-A was unloaded and read on EnVision.
(In general: Changes in cAMP serve as a functional read-out for many G protein-coupled receptors.)
As a reminder, the EC50 is the concentration that produces a half-maximal response. A high value points to weaker potency. The molecule `O=C(O)c1ccc2nc(CN3CCC(c4cccc(OCc5ccc(Cl)cc5F)n4)CC3)n(C[C@@H]3CCO3)c2c1` [Ref-01, reference compound] displayed an EC50 of 1 nM.

As for `O=C(O)c1ccc2nc(C3(N4CCC(c5ccccc5OCc5ccc(Cl)cc5F)CC4)CC3)n(C[C@@H]3CCO3)c2c1` [Compound 23], the EC50 was over 100 nM.

The molecule `CCn1cncc1Cn1c(CN2CCC(c3ccccc3OCc3ccc(Cl)cc3F)CC2)nc2ccc(C(=O)O)cc21` [Compound 25] registered an EC50 of over 100 nM.

`[2H]C([2H])(Oc1ccccc1C1CCN(Cc2nc3ccc(C(=O)O)cc3n2C[C@@H]2CCO2)CC1)c1ccc(Cl)cc1F` [Compound 26] gave an EC50 of 1.8 nM.

With `CC1CN(Cc2nc3ccc(C(=O)O)cc3n2C[C@@H]2CCO2)CC(C)C1c1ccccc1OCc1ccc(Cl)cc1F` (some centres unmarked) [Compound 30], the EC50 was over 100 nM.

With `O=C(O)c1ccc2nc(CN3CCC(c4c(F)cccc4OCc4ccc(Cl)cc4F)CC3)n(C[C@@H]3CCO3)c2c1` [Compound 6], the response was half-maximal at 8.1 nM (EC50).

Take `O=C(O)c1ccc2nc(CC3CCC(c4ccccc4OCc4ccc(Cl)cc4F)CC3)n(C[C@@H]3CCO3)c2c1` (some centres unmarked) [Compound 21]: the EC50 is over 100 nM.

With `COc1cccc(C2CCN(Cc3nc4ccc(C(=O)O)cc4n3C[C@@H]3CCO3)CC2)c1OCc1ccc(Cl)cc1F` [Compound 5], a half-maximal effect (EC50) was put at 15 nM.

`O=C(O)c1ccc2nc(CN3CCC(c4ccccc4OCc4ccc(F)cc4F)CC3)n(C[C@@H]3CCO3)c2c1` [Compound 8] yielded a 50% effective concentration (EC50) of 3.2 nM.

Consider `O=C(O)c1ccc2nc(CN3CCC(c4cccnc4OCc4ccc(Cl)cc4F)CC3)n(C[C@@H]3CCO3)c2c1` [Ref-02, reference compound], for which a half-maximal response (EC50) required 1 nM.

`CN(Cc1ccc(Cl)cc1F)c1ccccc1C1CCN(Cc2nc3ccc(C(=O)O)cc3n2C[C@@H]2CCO2)CC1` [Compound 16] showed an EC50 of over 100 nM.

Take `O=C(O)c1ccc2nc(CN3CCC(c4ccccc4OCc4ccc(Cl)cn4)CC3)n(C[C@@H]3CCO3)c2c1` [Compound 9]: the EC50 came out at 34.8 nM.

The molecule `O=C(O)c1ccc2nc(CN3CCC(c4cccc(F)c4OCc4ccccc4F)CC3)n(C[C@@H]3CCO3)c2c1` [Compound 7] returned a concentration giving a half-maximal response (EC50) of 5 nM.

Turning to `O=C(O)c1ccc2nc(CC3CCN(c4ccccc4OCc4ccc(Cl)cc4F)CC3)n(C[C@@H]3CCO3)c2c1` [Compound 19], the concentration giving a half-maximal response (EC50) was over 100 nM.

For `O=C(O)c1ccc2nc(CN3CCC(c4ccccc4SCc4ccc(Cl)cc4F)CC3)n(C[C@@H]3CCO3)c2c1` [Compound 17], a half-maximal effect (EC50) was put at 53 nM.

Molecule `[2H]C([2H])(c1nc2ccc(C(=O)O)cc2n1C[C@@H]1CCO1)N1CCC(c2ccccc2OCc2ccc(Cl)cc2F)CC1` [Compound 27] returned an EC50 of 2.3 nM.

In turn, `CC1CN(Cc2nc3ccc(C(=O)O)cc3n2C[C@@H]2CCO2)CCC1c1ccccc1OCc1ccc(Cl)cc1F` (some centres unmarked) [Compound 29] came in with an EC50 of over 100 nM.

The molecule `O=C(O)c1ccc2nc(CN3CCC(c4ccccc4OCc4ccc(Cl)cc4Cl)CC3)n(C[C@@H]3CCO3)c2c1` [Compound 11] gave an EC50 of 2.9 nM.

`O=C(O)c1ccc2nc(CN3CCC(c4ccccc4OCc4ccc(Cl)cc4F)CC3)n(C[C@@H]3CCO3)c2n1` [Compound 22] yielded an EC50 of 2.1 nM.

`O=C(O)c1ccc2nc(CN3CCC(c4ccc(F)cc4OCc4ccc(Cl)cc4F)CC3)n(C[C@@H]3CCO3)c2c1` [Compound 13]: a half-maximal effect (EC50) was put at 5.8 nM.

In the case of `CC1(c2ccccc2OCc2ccc(Cl)cc2F)CCN(Cc2nc3ccc(C(=O)O)cc3n2C[C@@H]2CCO2)CC1` [Compound 28], the EC50 is over 100 nM.

In the case of `Cc1ccc(COc2ccccc2C2CCN(Cc3nc4ccc(C(=O)O)cc4n3C[C@@H]3CCO3)CC2)c(F)c1` [Compound 12], the EC50 amounted to 1 nM.

On to `CC(Oc1ccccc1C1CCN(Cc2nc3ccc(C(=O)O)cc3n2C[C@@H]2CCO2)CC1)c1ccc(Cl)cc1F` (some centres unmarked) [Compound 10], for which the half-maximal effective concentration (EC50) worked out at 26 nM.

The molecule `N#Cc1ccc(COc2c(F)cccc2C2CCN(Cc3nc4ccc(C(=O)O)cc4n3C[C@@H]3CCO3)CC2)c(F)c1` [Compound 2] yielded a concentration giving a half-maximal response (EC50) of 0.8 nM.

`O=C(O)c1ccc2nc(CN3CCN(c4ccccc4OCc4ccc(Cl)cc4F)CC3)n(C[C@@H]3CCO3)c2c1` [Compound 18]: the midpoint of the response, the EC50, lay at 10.7 nM.

On to `O=C(O)c1ccc2nc(CN3CCC(c4cc(F)ccc4OCc4ccc(Cl)cc4F)CC3)n(C[C@@H]3CCO3)c2c1` [Compound 14], for which the half-maximal effective concentration (EC50) was 3.7 nM.

For the molecule `N#Cc1ccc(COc2ccccc2C2CCN(Cc3nc4ccc(C(=O)O)cc4n3C[C@@H]3CCO3)CC2)c(F)c1` [Compound 1], it took 3.4 nM to reach a half-maximal effect (EC50).

In turn, `O=C(O)c1ccc2nc(CN3CCC(c4ccccc4NCc4ccc(Cl)cc4F)CC3)n(C[C@@H]3CCO3)c2c1` [Compound 15] gave an EC50 of 7.5 nM.

`Cn1c(CN2CCC(c3ccccc3OCc3ccc(Cl)cc3F)CC2)nc2ccc(C(=O)O)cc21` [Compound 24] registered a half-maximal effective concentration (EC50) of over 100 nM.

As for `O=C(O)c1ccc2nc(Cc3ccc(-c4ccccc4OCc4ccc(Cl)cc4F)cc3)n(C[C@@H]3CCO3)c2c1` [Compound 20], the EC50 was 24.6 nM.

`O=C(O)c1ccc2nc(CN3CCC(c4cccc(F)c4OCc4ccc(Cl)cc4F)CC3)n(C[C@@H]3CCO3)c2c1` [Compound 4] had an EC50 of 0.7 nM.
